# Test results reported in US4604239A, “Antibiotics” (Eli Lilly and Company, priority 1985, dated 1986).
# How the values were obtained:
# electrometric titration = assay type: physicochemical; settings: electrometric titration in 66% dimethylformamide in water
# Source text: Antibiotic A41030 factor A is a white, crystalline solid.
# Enterobacter aerogenes = assay: agar-dilution MIC; assay type: cell-based; settings: Enterobacter aerogenes C32; Table 17
# Source text: The results after reading the which follows.
# [1] = tested on: Streptococcus sp. Group B; assay: agar-dilution MIC; assay type: cell-based; settings: Streptococcus sp. Group B 5; end point after 24 hours; Table 18
# Source text: (§1) The in vitro activity of antibiotic A41030 factors A and B against a number of representative aerobic, gram-positive bacteria, including Streptococcus sp. Group D, has been determined using a standard agar-dilution assay.
# [2] = tested on: Streptococcus sp. ATCC 10389; assay: agar-dilution MIC; assay type: cell-based; settings: end point after 24 hours, Table 18
# Source text: as §1
# Fusobacterium symbiosum = assay: agar-dilution MIC; assay type: cell-based; settings: Fusobacterium symbiosum 1470; Table 14
# [3] = tested on: Haemophilus parainfluenzae; assay: agar-dilution MIC; assay type: cell-based; settings: end point after 24 hours, Table 18
# S. pneumoniae = assay: experimental bacterial infection in mice; assay type: in vivo; settings: two doses subcutaneously
# Method: All of the A41030 factors tested have shown in vivo antimicrobial activity against experimental bacterial infections. When two doses of test compound were administered subcutaneously to mice in illustrative infections, the activity observed is measured as an ED50 value [effective dose in mg./kg. to protect fifty percent of the test animals: See Warren Wick, et al., J. Bacteriol. 81, 233-235 (1961)].
# Propionibacterium acnes = assay: agar-dilution MIC; assay type: cell-based
# Source text: Antibiotic A41030 factors A, B and C have also been tested and found to be active against a genus of anaerobic bacteria identified as Propionibacterium acnes.
# S. pyogenes = assay: experimental bacterial infection in mice; assay type: in vivo; settings: for in vivo oral activity: against S. pyogenes in mice
# Bacteroides fragilis = assay: agar-dilution MIC; assay type: cell-based
# Source text: The agar-dilution procedure described by the International Collaborative study (ICS) group was used to determine the minimum inhibitory concentrations (MIC's).
# [4] = P. acnes 104, 24-hour, Table 13
# [5] = P. acnes 5170, 24-hour, Table 13
# [6] = P. acnes 5176, 24-hour, Table 13
# [7] = P. acnes 5187, 24-hour, Table 13
# [8] = P. acnes 5197, 24-hour, Table 13
# [9] = P. acnes 5227, 24-hour, Table 13
# [10] = P. acnes 5228, 24-hour, Table 13
# [11] = P. acnes 5229, 24-hour, Table 13
# [12] = P. acnes 5292, 24-hour, Table 13
# [13] = Propionibacterium acnes 79, Table 14
# [14] = B. fragilis 2, 24-hour, Table 12
# [15] = B. fragilis 9, 24-hour, Table 12
# [16] = B. fragilis 103, 24-hour, Table 12
# [17] = B. fragilis 104, 24-hour, Table 12
# [18] = B. fragilis 106, 24-hour, Table 12
# [19] = B. fragilis 107, 24-hour, Table 12
# [20] = B. fragilis 108, 24-hour, Table 12
# [21] = B. fragilis 110, 24-hour, Table 12
# [22] = B. fragilis 111, 24-hour, Table 12
# [23] = B. fragilis 112, 24-hour, Table 12
# [24] = B. fragilis 113, 24-hour, Table 12
# [25] = B. fragilis 1451, 24-hour, Table 12
# [26] = B. fragilis 1470, 24-hour, Table 12
# [27] = B. fragilis 1877, 24-hour, Table 12
# [28] = B. fragilis 9032, 24-hour, Table 12
# [29] = Bacteroides fragilis 1877, Table 14
# [30] = Bacteroides fragilis 1936B, Table 14
molecule,measurement,setting,value
N[C@H]1C(=O)N[C@@H]2Cc3ccc(c(Cl)c3)Oc3cc4cc(c3O)Oc3ccc(cc3Cl)[C@@H](O)[C@@H]3NC(=O)C(NC(=O)[C@@H]4NC(=O)[C@@H](NC2=O)c2cc(O)cc(c2)Oc2cc1ccc2O)c1ccc(O)c(c1)-c1c(O)cc(O)cc1[C@@H](C(=O)O)NC3=O [A41030 factor B],possibly additional pKa's,electrometric titration,> 10
same,MIC,Enterobacter aerogenes,64 µg/mL
same,MIC,[1],1 µg/mL
same,MIC,[2],0.25 µg/mL
same,MIC,Fusobacterium symbiosum,1.0 µg/mL
same,MIC,[3]; Haemophilus parainfluenzae 7901,16 µg/mL
same,MIC,[3]; Haemophilus parainfluenzae 9796,16 µg/mL
same,ED50,S. pneumoniae,1.4 mg/kg
same,MIC,"Propionibacterium acnes; P. acnes 44, 24-hour, Table 13",0.06 µg/mL
same,MIC,"Propionibacterium acnes; P. acnes 79, 24-hour, Table 13",0.06 µg/mL
same,MIC,"Propionibacterium acnes; P. acnes 101, 24-hour, Table 13",0.06 µg/mL
same,MIC,"Propionibacterium acnes; P. acnes 103, 24-hour, Table 13",0.06 µg/mL
same,MIC,Propionibacterium acnes; [4],0.25 µg/mL
same,MIC,"Propionibacterium acnes; P. acnes 105, 24-hour, Table 13",0.06 µg/mL
same,MIC,"Propionibacterium acnes; P. acnes 106, 24-hour, Table 13",0.06 µg/mL
same,MIC,"Propionibacterium acnes; P. acnes 107, 24-hour, Table 13",0.06 µg/mL
same,MIC,Propionibacterium acnes; [5],≤ 0.03 µg/mL
same,MIC,Propionibacterium acnes; [6],0.06 µg/mL
same,MIC,Propionibacterium acnes; [7],0.06 µg/mL
same,MIC,"Propionibacterium acnes; P. acnes 5191, 24-hour, Table 13",0.06 µg/mL
same,MIC,Propionibacterium acnes; [8],0.06 µg/mL
same,MIC,"Propionibacterium acnes; P. acnes 5226, 24-hour, Table 13",0.5 µg/mL
same,MIC,Propionibacterium acnes; [9],0.06 µg/mL
same,MIC,Propionibacterium acnes; [10],0.5 µg/mL
same,MIC,Propionibacterium acnes; [11],0.25 µg/mL
same,MIC,Propionibacterium acnes; [12],0.06 µg/mL
same,MIC,Propionibacterium acnes; [13],16 µg/mL
same,ED50,"S. pyogenes; S. pyogenes infection in mice, two doses subcutaneously",1.4 mg/kg
same,in vivo oral activity,S. pyogenes,> 300 mg./kg. X 2
same,MIC,Bacteroides fragilis; [14],32 µg/mL
same,MIC,Bacteroides fragilis; [15],32 µg/mL
same,MIC,Bacteroides fragilis; [16],32 µg/mL
same,MIC,Bacteroides fragilis; [17],32 µg/mL
same,MIC,Bacteroides fragilis; [18],32 µg/mL
same,MIC,Bacteroides fragilis; [19],32 µg/mL
same,MIC,Bacteroides fragilis; [20],32 µg/mL
same,MIC,Bacteroides fragilis; [21],64 µg/mL
same,MIC,Bacteroides fragilis; [22],32 µg/mL
same,MIC,Bacteroides fragilis; [23],32 µg/mL
same,MIC,Bacteroides fragilis; [24],32 µg/mL
same,MIC,Bacteroides fragilis; [25],64 µg/mL
same,MIC,Bacteroides fragilis; [26],64 µg/mL
same,MIC,Bacteroides fragilis; [27],32 µg/mL
same,MIC,Bacteroides fragilis; [28],32 µg/mL
same,MIC,"Bacteroides fragilis; Bacteroides fragilis 111, Table 14",64 µg/mL
same,MIC,Bacteroides fragilis; [29],32 µg/mL
same,MIC,Bacteroides fragilis; [30],32 µg/mL
A41030 factor C,possibly additional pKa's,electrometric titration,> 10
same,MIC,Fusobacterium symbiosum,1.0 µg/mL
same,ED50,S. pneumoniae,6.7 mg/kg
same,MIC,Propionibacterium acnes; [4],0.25 µg/mL
same,MIC,Propionibacterium acnes; [5],≤ 0.03 µg/mL
same,MIC,Propionibacterium acnes; [6],≤ 0.03 µg/mL
same,MIC,Propionibacterium acnes; [7],0.06 µg/mL
same,MIC,Propionibacterium acnes; [8],≤ 0.03 µg/mL
same,MIC,Propionibacterium acnes; [9],0.06 µg/mL
same,MIC,Propionibacterium acnes; [10],1.0 µg/mL
same,MIC,Propionibacterium acnes; [11],0.5 µg/mL
same,MIC,"Propionibacterium acnes; P. acnes 5246, 24-hour, Table 13",0.06 µg/mL
same,MIC,Propionibacterium acnes; [12],0.06 µg/mL
same,MIC,Propionibacterium acnes; [13],≤ 0.25 µg/mL
same,in vivo oral activity,S. pyogenes,> 300 mg./kg. X 2
same,MIC,Bacteroides fragilis; [14],32 µg/mL
same,MIC,Bacteroides fragilis; [15],32 µg/mL
same,MIC,Bacteroides fragilis; [16],32 µg/mL
same,MIC,Bacteroides fragilis; [17],32 µg/mL
same,MIC,Bacteroides fragilis; [18],32 µg/mL
same,MIC,Bacteroides fragilis; [19],32 µg/mL
same,MIC,Bacteroides fragilis; [20],64 µg/mL
same,MIC,Bacteroides fragilis; [21],64 µg/mL
same,MIC,Bacteroides fragilis; [22],32 µg/mL
same,MIC,Bacteroides fragilis; [23],32 µg/mL
same,MIC,Bacteroides fragilis; [24],32 µg/mL
same,MIC,Bacteroides fragilis; [25],64 µg/mL
same,MIC,Bacteroides fragilis; [26],64 µg/mL
same,MIC,Bacteroides fragilis; [27],32 µg/mL
same,MIC,Bacteroides fragilis; [28],32 µg/mL
same,MIC,Bacteroides fragilis; [29],16 µg/mL
same,MIC,Bacteroides fragilis; [30],32 µg/mL
